SMILES strings stand for the structures. Like-named read-outs stand apart in the source and are kept apart here.

In general, IC50 refers to the concentration that gives 50% inhibition. One may read the Ki as a dissociation constant, usually derived from enzyme kinetics or from competition with a known ligand.

The test system of assay [1] is XO. Also on record: method as in PMID 25102361. The conditions noted are these: read-out: IC50 (XO inhibitory effect); cited from earlier work.
The target in assay [2] is T1, Xanthine oxidase from bovine milk (Bos taurus, UniProt P80457).
T1 construct: Xanthine oxidase from bovine milk (0.2 U/mg); purchased Sigma-Aldrich (St. Louis, MO); host or cells: bovine milk
Put plainly: XO inhibition kinetics (Lineweaver-Burk, Ki). In kind it is biochemical. The conditions noted are these: for Inhibition mode: Lineweaver-Burk plots. The procedure: The assay was carried out in a 500-μL final volume buffer A, constituted by 50 mM phosphate buffer, pH 7.8, 0.1 mM EDTA, supplemented with increasing concentration of xanthine as substrate in the absence or in the presence of variable amounts of the selected inhibitor. The assay was initiated by adding 10 μL of 160 U/L XO solution to the reaction mixture, without or with inhibitors, and it was followed in kinetics by reading the absorbance up to 2 min at 20 °C, thus calculating the rate of acid uric formation in the linear range of the reaction. The kinetic parameters of the XO reaction were derived from Lineweaver–Burk plots obtained measuring the rate of uric acid formation at different xanthine concentration (ranging between 0.4 and10 μM). Inhibition studies were carried out by measuring the kinetic parameters in the presence of different inhibitors. […] Km/Ki + Km.
The kinetic parameters of XO were determined by Lineweaver–Burk plot using a standard curve-fitting program. At each single concentration of substrate, the activity was evaluated in triplicate. […] Correlation and regression analyses and statistical analysis were made with Student’s t-test, using the software KaleidaGraph (Reading, PA). p values lower than 0.05 were considered to be significant.

Assay [3] addresses T1, Xanthine oxidase from bovine milk. Briefly: XO activity assay (IC50, uric acid formation at 295 nm). In kind it is biochemical. The conditions noted are these: total absence of methanol; 50 μM xanthine, pH 7.8, 20 °C. As for the experimental part:
The assay was carried out in a 500 μL final volume reaction mixture, containing 50 mM phosphate buffer, pH 7.8, 0.1 mM EDTA, 50 μM xanthine as substrate, 3.2 U/L XO, and different amounts of each compound as potential XO inhibitor. The assay was started by adding 10 μL of the enzyme stock solution to the reaction mixture and followed by reading the absorbance up to 2 min at 20 °C, thus calculating the corresponding rate in the linear range of the reaction. For each sample, the extent of the inhibitory effect (i) was calculated as i = (V0 – Vi)/V0 where V0 and Vi are respectively the rate measured in the absence or presence at least six different amounts of the compounds used [I], whose range of concentration was properly chosen.

Assay [4] addresses XO. Also on record: method as in Flemmig et al.[52]. The conditions noted are these: ref Flemmig et al.[52], cited from earlier work.

T1 sequence (P80457 whole entry): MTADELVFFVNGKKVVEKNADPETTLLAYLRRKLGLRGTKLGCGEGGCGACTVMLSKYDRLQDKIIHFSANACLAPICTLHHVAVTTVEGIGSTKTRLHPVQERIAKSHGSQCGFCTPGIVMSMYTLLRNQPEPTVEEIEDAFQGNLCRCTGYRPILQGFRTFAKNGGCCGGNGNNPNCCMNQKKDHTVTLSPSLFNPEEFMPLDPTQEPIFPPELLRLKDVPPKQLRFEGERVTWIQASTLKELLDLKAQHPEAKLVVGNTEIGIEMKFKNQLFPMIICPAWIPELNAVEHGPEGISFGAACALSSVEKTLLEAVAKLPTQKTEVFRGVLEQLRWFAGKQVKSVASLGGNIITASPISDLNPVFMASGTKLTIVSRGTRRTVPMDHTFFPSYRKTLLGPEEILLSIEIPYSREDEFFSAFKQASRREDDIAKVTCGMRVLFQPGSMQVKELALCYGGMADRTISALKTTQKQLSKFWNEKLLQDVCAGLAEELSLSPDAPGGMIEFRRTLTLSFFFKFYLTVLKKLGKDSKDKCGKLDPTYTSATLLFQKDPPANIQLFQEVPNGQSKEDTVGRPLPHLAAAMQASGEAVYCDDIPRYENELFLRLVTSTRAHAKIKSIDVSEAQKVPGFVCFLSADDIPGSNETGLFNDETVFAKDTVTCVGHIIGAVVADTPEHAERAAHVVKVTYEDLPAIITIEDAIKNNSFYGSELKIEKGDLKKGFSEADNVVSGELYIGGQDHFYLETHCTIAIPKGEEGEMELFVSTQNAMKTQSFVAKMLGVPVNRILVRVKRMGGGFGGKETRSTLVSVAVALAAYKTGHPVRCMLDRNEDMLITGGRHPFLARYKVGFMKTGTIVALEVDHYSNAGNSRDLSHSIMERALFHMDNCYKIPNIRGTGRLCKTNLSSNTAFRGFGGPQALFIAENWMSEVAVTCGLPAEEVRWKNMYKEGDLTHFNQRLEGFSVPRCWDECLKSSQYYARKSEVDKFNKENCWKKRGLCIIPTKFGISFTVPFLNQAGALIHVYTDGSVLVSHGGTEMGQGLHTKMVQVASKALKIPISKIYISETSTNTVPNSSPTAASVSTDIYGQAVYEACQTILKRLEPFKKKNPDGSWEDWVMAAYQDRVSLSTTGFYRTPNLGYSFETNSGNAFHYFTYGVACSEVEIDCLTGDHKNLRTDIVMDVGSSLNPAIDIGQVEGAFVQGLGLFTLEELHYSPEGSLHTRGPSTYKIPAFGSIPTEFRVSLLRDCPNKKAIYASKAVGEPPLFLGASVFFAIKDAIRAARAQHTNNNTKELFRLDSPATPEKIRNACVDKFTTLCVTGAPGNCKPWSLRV

As to `O=c1c(O[C@@H]2O[C@H](CO)[C@@H](O)[C@H](O)[C@H]2O)c(-c2ccc(O)c(O)c2)oc2cc(O)cc(O)c12` [quercetin 3-O-glucoside], the IC50 in assay [1] was 54.6 µM.

As to `Oc1ncnc2[nH]ncc12` [Allopurinol, allopurinol, reference compound], the Inhibition mode entry in assay [2] was “competitive inhibition mode”.

`C/C=C1/[C@H]2OC=C(C(=O)OC)[C@H]1CC(=O)OC[C@@H](c1ccc(O)c(O)c1)OC[C@H]1O[C@@H](O2)[C@H](O)[C@@H](O)[C@@H]1O` [Compound 1, fraxamoside]: the Inhibition mode result in assay [2] is given as “Competitive”; in assay [2] (listed as fraxamoside), “competitively inhibited”. For the same compound, in assay [2] (fraxamoside Ki versus oleuropein Ki), the “Ki lower than that of oleuropein (fold)” value is “at least 50 times”. In assay [2] (secondary plot of K'm versus [I], xanthine 0.4-10 μM, pH 7.8, 20 °C), this compound gave a Ki of 0.9 ± 0.25 µM. This compound also displayed a half-inhibitory concentration (IC50) in assay [3] of 16.1 ± 0.7 µM.

Consider `OCCc1ccc(O)c(O)c1` [Compound 4, hydroxytyrosol], for which the Ki result in assay [4] is on record as “No inhibition^a”. Also, the IC50 in assay [3] worked out at 1130 ± 22 µM.

Take `C/C=C1/[C@H](O[C@@H]2O[C@H](CO)[C@@H](O)[C@H](O)[C@H]2O)OC=C(C(=O)OC)[C@H]1CC(=O)O` [Compound 3, oleoside 11-methyl ester]: in assay [3], the midpoint of inhibition, the IC50, lay at 259 ± 13 µM.

Take `O=c1c(O)c(-c2ccc(O)c(O)c2)oc2cc(O)cc(O)c12` [quercetin]: the IC50 in assay [1] was 1.9 µM.

Take `C/C=C1/[C@H](O[C@@H]2O[C@H](CO)[C@@H](O)[C@H](O)[C@H]2O)OC=C(C(=O)OC)[C@H]1CC(=O)OCCc1ccc(O)c(O)c1` [Compound 2, oleuropein]: the Inhibition mode result is given as “Competitive^a” in assay [4] and “competitive inhibition mode” in assay [4] (listed as oleuropein). In assay [4] (read-out: Ki), the Ki is 53 µM. In assay [3], this compound yielded an IC50 of 335 ± 17 µM.

Source of the values: PMC6009875, “Structure–activity relationships of fraxamoside as an unusual xanthine oxidase inhibitor” (Journal of Enzyme Inhibition and Medicinal Chemistry, 2017).
